This data set concerns CCRIS mutagenicity, Ames/micronucleus/aberration tests. In words: CCRIS mutagenicity studies. From the text: The CCRIS database contains chemical records with carcinogenicity, mutagenicity, tumor promotion, and tumor inhibition test results. It was developed by the National Cancer Institute (NCI). Data are derived from studies cited in primary journals, current awareness tools, NCI reports, and other sources. Test results have been reviewed by experts in carcinogenesis and mutagenesis.
CCRIS provides historical information from the years 1985 - 2011. It is no longer updated.
This is an archive assay for CCRIS mutagenicity studies.

[1] abbreviates: Test System: AMES SALMONELLA TYPHIMURIUM, Strain/Indicator: TA98, Metabolic Activation: NONE, Method: STANDARD PLATE.
The mark [2] stands for this setting: Test System: AMES SALMONELLA TYPHIMURIUM, Strain/Indicator: TA98, Metabolic Activation: RAT, LIVER, S-9, AROCLOR 1254, Method: STANDARD PLATE.
The mark [3] stands for this setting: Test System: AMES SALMONELLA TYPHIMURIUM, Strain/Indicator: TA100, Metabolic Activation: NONE, Method: STANDARD PLATE.
Where [4] appears, read: Test System: AMES SALMONELLA TYPHIMURIUM, Strain/Indicator: TA100, Metabolic Activation: RAT, LIVER, S-9, AROCLOR 1254, Method: STANDARD PLATE.
[5] abbreviates: Test System: AMES SALMONELLA TYPHIMURIUM, Strain/Indicator: TA1535, Metabolic Activation: NONE, Method: STANDARD PLATE.
[6] abbreviates: Test System: AMES SALMONELLA TYPHIMURIUM, Strain/Indicator: TA1535, Metabolic Activation: RAT, LIVER, S-9, AROCLOR 1254, Method: STANDARD PLATE.
[7] abbreviates: Test System: AMES SALMONELLA TYPHIMURIUM, Strain/Indicator: TA1537, Metabolic Activation: NONE, Method: STANDARD PLATE.
Where [8] appears, read: Test System: AMES SALMONELLA TYPHIMURIUM, Strain/Indicator: TA1537, Metabolic Activation: RAT, LIVER, S-9, AROCLOR 1254, Method: STANDARD PLATE.
[9] abbreviates: Test System: AMES SALMONELLA TYPHIMURIUM, Strain/Indicator: TA98, Metabolic Activation: NONE, Method: PREINCUBATION
Setting [10] is: Test System: AMES SALMONELLA TYPHIMURIUM, Strain/Indicator: TA1538, Metabolic Activation: NONE, Method: STANDARD PLATE.
[11] abbreviates: Test System: AMES SALMONELLA TYPHIMURIUM, Strain/Indicator: TA1538, Metabolic Activation: RAT, LIVER, S-9, AROCLOR 1254, Method: STANDARD PLATE.

The values that follow come from PubChem BioAssay AID1259407 (Chemical Carcinogenesis Research Information System (CCRIS), 2018).

Activity calls are given as the source filed them. No rule for the calls is given here.

Consider `O=C(OCc1ccc(Cl)cc1Cl)c1cccc2cccnc12`, for which the mutagenic call by setting is: under setting [1], “inactive; negative”; under setting [2], “inactive; negative”; under setting [3], “inactive; negative”; under setting [4], “inactive; negative”; under setting [5], “inactive; negative”; under setting [6], “inactive; negative”. For the same compound, the mutagenic call under setting [7] was “inactive; negative” and the mutagenic call under setting [8] is “inactive; negative”.

`C[N+]1(CCNP(=S)(NCC[N+]2(C)Cc3c(ccc4c3OCO4)[C@@H]3[C@H]2c2cc4c(cc2C[C@@H]3O)OCO4)NCC[N+]2(C)Cc3c(ccc4c3OCO4)[C@@H]3[C@H]2c2cc4c(cc2C[C@@H]3O)OCO4)Cc2c(ccc3c2OCO3)[C@@H]2[C@H]1c1cc3c(cc1C[C@@H]2O)OCO3` (some centres undefined): the mutagenic call runs as follows: under setting [3], “inactive; negative”; under setting [4], “inactive; negative”.

On to `O=C(O)/C=C/C=C/CO`, for which the mutagenic call (Test System: CHINESE HAMSTER V-79, Strain/Indicator: V-79 (HGPRT)/8-AZAGUANINE, Metabolic Activation: NONE) is “inactive; negative”.

As to `c1ccc(OP(Oc2ccccc2)Oc2ccccc2)cc1`, the mutagenic call was “inactive; negative” (Test System: AMES SALMONELLA TYPHIMURIUM, Strain/Indicator: TA98, Metabolic Activation: HAMSTER, LIVER, S-9, AROCLOR 1254 (10%), Method: PREINCUBATION); “inactive; negative” under setting [9]; “inactive; negative” (Test System: AMES SALMONELLA TYPHIMURIUM, Strain/Indicator: TA98, Metabolic Activation: RAT, LIVER, S-9, AROCLOR 1254 (10%), Method: PREINCUBATION); “inactive; negative” (Test System: AMES SALMONELLA TYPHIMURIUM, Strain/Indicator: TA100, Metabolic Activation: HAMSTER, LIVER, S-9, AROCLOR 1254 (10%), Method: PREINCUBATION); “inactive; negative” (Test System: AMES SALMONELLA TYPHIMURIUM, Strain/Indicator: TA100, Metabolic Activation: NONE, Method: PREINCUBATION); “inactive; negative” (Test System: AMES SALMONELLA TYPHIMURIUM, Strain/Indicator: TA100, Metabolic Activation: RAT, LIVER, S-9, AROCLOR 1254 (10%), Method: PREINCUBATION). In addition, the mutagenic call (Test System: AMES SALMONELLA TYPHIMURIUM, Strain/Indicator: TA1535, Metabolic Activation: HAMSTER, LIVER, S-9, AROCLOR 1254 (10%), Method: PREINCUBATION) was “inactive; negative”; the mutagenic call (Test System: AMES SALMONELLA TYPHIMURIUM, Strain/Indicator: TA1535, Metabolic Activation: NONE, Method: PREINCUBATION) was “inactive; negative”; the mutagenic call (Test System: AMES SALMONELLA TYPHIMURIUM, Strain/Indicator: TA1535, Metabolic Activation: RAT, LIVER, S-9, AROCLOR 1254 (10%), Method: PREINCUBATION) was “inactive; negative”; the mutagenic call (Test System: AMES SALMONELLA TYPHIMURIUM, Strain/Indicator: TA1537, Metabolic Activation: HAMSTER, LIVER, S-9, AROCLOR 1254 (10%), Method: PREINCUBATION) is “inactive; negative”; the mutagenic call (Test System: AMES SALMONELLA TYPHIMURIUM, Strain/Indicator: TA1537, Metabolic Activation: NONE, Method: PREINCUBATION) is “inactive; negative”; the mutagenic call (Test System: AMES SALMONELLA TYPHIMURIUM, Strain/Indicator: TA1537, Metabolic Activation: RAT, LIVER, S-9, AROCLOR 1254 (10%), Method: PREINCUBATION) is “inactive; negative”.

Consider `O=C1c2cc(S(=O)(=O)O)ccc2C(=O)c2c1cccc2[N+](=O)[O-]`, for which the mutagenic call is “active; positive” under setting [1]; “active; positive” under setting [2]; “inactive; negative” under setting [4]; “inactive; negative” under setting [5]; “inactive; negative” under setting [6]; “active; positive” under setting [7]. Besides, the mutagenic call under setting [8] is “active; positive”, the mutagenic call under setting [10] is “active; positive” and the mutagenic call under setting [11] was “active; positive”.

Turning to `O=C1NC(c2ccc([N+](=O)[O-])s2)Nc2ccccc21` (centres undefined), the mutagenic call by setting is: under setting [1], “active; positive”; under setting [3], “active; positive”.

With `CNC(=O)Nc1ccccc1`, the mutagenic call is, setting by setting: under setting [1], “inactive; negative”; under setting [2], “inactive; negative”; under setting [3], “inactive; negative”; under setting [4], “inactive; negative”; under setting [5], “inactive; negative”; under setting [6], “inactive; negative”. Besides, the mutagenic call is, setting by setting: under setting [7], “inactive; negative”; under setting [8], “inactive; negative”; under setting [10], “inactive; negative”; under setting [11], “inactive; negative”.

Consider `O=[N+]([O-])c1ccc2sc3ccccc3c2c1`, for which the mutagenic call runs as follows: (Test System: AMES SALMONELLA TYPHIMURIUM, Strain/Indicator: TA98 (1,8-DNP6), Metabolic Activation: NONE, Method: PREINCUBATION) “active; positive”; (Test System: AMES SALMONELLA TYPHIMURIUM, Strain/Indicator: TA98(NR), Metabolic Activation: NONE, Method: PREINCUBATION) “active; positive”; (Test System: AMES SALMONELLA TYPHIMURIUM, Strain/Indicator: TA98(NR), Metabolic Activation: RAT LIVER S-9, 3-METHYLCHOLANTHRENE (10%), Method: PREINCUBATION) “active; positive”; under setting [9], “active; positive”.

For the compound `C[Si](Cl)(Cl)Cl`, the mutagenic call was “inactive; negative” under setting [1]; “inactive; negative” (Test System: AMES SALMONELLA TYPHIMURIUM, Strain/Indicator: TA98, Metabolic Activation: RAT LIVER S-9, AROCLOR 1254, Method: STANDARD PLATE); “inactive; negative” under setting [3]; “inactive; negative” (Test System: AMES SALMONELLA TYPHIMURIUM, Strain/Indicator: TA100, Metabolic Activation: RAT LIVER S-9, AROCLOR 1254, Method: STANDARD PLATE); “inactive; negative” under setting [5]; “inactive; negative” (Test System: AMES SALMONELLA TYPHIMURIUM, Strain/Indicator: TA1535, Metabolic Activation: RAT LIVER S-9, AROCLOR 1254, Method: STANDARD PLATE). The mutagenic call is, setting by setting: under setting [7], “inactive; negative”; (Test System: AMES SALMONELLA TYPHIMURIUM, Strain/Indicator: TA1537, Metabolic Activation: RAT LIVER S-9, AROCLOR 1254, Method: STANDARD PLATE) “inactive; negative”; under setting [10], “inactive; negative”; (Test System: AMES SALMONELLA TYPHIMURIUM, Strain/Indicator: TA1538, Metabolic Activation: RAT LIVER S-9, AROCLOR 1254, Method: STANDARD PLATE) “inactive; negative”; (Test System: E. COLI, Strain/Indicator: P3078 POLA, Metabolic Activation: NONE, Method: SPOT TEST) “inactive; negative”; (Test System: E. COLI, Strain/Indicator: P3078 POLA, Metabolic Activation: RAT LIVER S-9, AROCLOR 1254, Method: SPOT TEST) “inactive; negative”. Further, the mutagenic call is, setting by setting: (Test System: E. COLI, Strain/Indicator: W3110, Metabolic Activation: NONE, Method: SPOT TEST) “inactive; negative”; (Test System: E. COLI, Strain/Indicator: W3110, Metabolic Activation: RAT LIVER S-9, AROCLOR 1254, Method: SPOT TEST) “inactive; negative”; (Test System: MOUSE LYMPHOMA, Strain/Indicator: L5178Y (TK+/TK-), Metabolic Activation: NONE, Method: SUSPENSION/PLATE) “inactive; negative”; (Test System: MOUSE LYMPHOMA, Strain/Indicator: L5178Y (TK+/TK-), Metabolic Activation: RAT, LIVER, S-9, Method: SUSPENSION/PLATE) “inactive; negative”.
